Source: patent publication US20060018826A1, “Biologic modulations with nanoparticles” (priority 2002, published 2006)

Test system: hormone-insensitive PC3 cells
Assay: Growth inhibition in prostate carcinoma cells
Format: cell-based
Experimental: In these studies, cells were seeded at 5,000 cells per untreated well.

GTCCCGACATGTCAGACAGG (antisense GTCCCGACATGTCAGACAGG; chemistry not given here) [SEQ ID NO 1, antisense 20 mer spanning the translation start site of CK2α]
IC50 as % of cisplatin's IC50: 65%
